Structures can show the parent of a compound that is named as a salt.
test system: IL-2 production; test: Inhibition of IL-2 production in PHA-activated Jurkat cells (ELISA); assay type: cell-based; conditions: Homo sapiens, Jurkat, 20 h, PHA 2.5 μg/mL
Protocol: Jurkat cells were placed in a 96 well plate (0.5 million cells per well in 1% FBS medium) then a test compound of this invention was added at different concentrations. After 10 minutes, the cells were activated with PHA (final concentration 2.5 μg/mL) and incubated for 20 hours at 37° C. under CO2. The final volume was 200 μL. Following incubation, the cells were centrifuged and the supernatants were collected and stored at −70° C. prior to assaying for IL-2 production. A commercial ELISA kit (IL-2 Eli-pair, Diaclone Research, Besancon, France) was used to detect production of IL-2, from which dose response curves were obtained. The IC50 value was calculated as the concentration at which 50% of maximum IL-2 production after stimulation was inhibited versus a non-stimulation control.

Compound | IC50 [µM]
O=C(Nc1cnc(-n2c(C(F)(F)F)nc3cc(O)ccc32)cn1)c1c(F)cccc1F [Compound 4, 2,6-Difluoro-N-[5-(5-hydroxy-2-trifluoromethyl-benzoimidazol-1-yl)-pyrazin-2-yl]-benzamide, sodium salt] | 0.014

same assay, conditions: Homo sapiens, PHA 2.5 μg/mL, 20 hours

Compound | IC50 [µM]
O=C(Nc1cnc(-n2c(C(F)(F)F)nc3cc(-c4nnco4)ccc32)cn1)c1c(F)cccc1F [Compound 8, 2,6-Difluoro-N-[5-(5-[1,3,4]oxadiazol-2-yl-2-trifluoromethyl-benzoimidazol-1-yl)-pyrazin-2-yl]-benzamide] | 0.039
Cc1nnc(-c2ccc3c(c2)nc(C(F)(F)F)n3-c2cnc(NC(=O)c3c(F)cccc3F)cn2)o1 [Compound 9, 2,6-Difluoro-N-{5-[5-(5-methyl-[1,3,4]oxadiazol-2-yl)-2-trifluoromethyl-benzoimidazol-1-yl]-pyrazin-2-yl}-benzamide] | 0.084
O=C(Nc1cnc(-n2c(C(F)(F)F)nc3cc([N+](=O)[O-])ccc32)cn1)c1c(F)cccc1F [Compound 2, 2,6-Difluoro-N-[5-(5-nitro-2-trifluoromethyl-benzoimidazol-1-yl)-pyrazin-2-yl]-benzamide] | 0.089
COc1ccc2c(c1)nc(C)n2-c1cnc(NC(=O)c2c(F)cccc2F)cn1 [Compound 3, 2,6-Difluoro-N-[5-(5-methoxy-2-methyl-benzoimidazol-1-yl)-pyrazin-2-yl]-benzamide] | 0.102
O=C(Nc1cnc(-n2c(C(F)(F)F)nc3cc(O)ccc32)cn1)c1c(F)cccc1F [Compound 1, 2,6-Difluoro-N-[5-(5-hydroxy-2-trifluoromethyl-benzoimidazol-1-yl)-pyrazin-2-yl]-benzamide] | 0.034
Nc1ccc2c(c1)nc(C(F)(F)F)n2-c1cnc(NC(=O)c2c(F)cccc2F)cn1 [Compound 6, N-[5-(5-Amino-2-trifluoromethyl-benzoimidazol-1-yl)-pyrazin-2-yl]-2,6-difluoro-benzamide] | 0.097
CN(C)c1ccc2c(c1)nc(C(F)(F)F)n2-c1cnc(NC(=O)c2c(F)cccc2F)cn1 [Compound 5, N-[5-(5-Dimethylamino-2-trifluoromethyl-benzoimidazol-1-yl)-pyrazin-2-yl]-2,6-difluoro-benzamide] | 0.029

From patent US8324219B2, “Substituted benzoimidazolyl-pyrazine compounds for inflammation and immune-related uses” (Synta Pharmaceuticals Corp., priority 2007, dated 2012)
